# From patent publication US9139581B2 (PORTOLA PHARMACEUTICALS, INC., priority 2008, dated 2015)
# Read-outs that look alike come from different tables or passages of the source.
# Target: T1, full length active recombinant SYK enzyme (Homo sapiens, UniProt P43405)
# T1 construct: full length active recombinant SYK enzyme (Millipore, Calif.); purchased Millipore
# Test: Inhibition of Syk tyrosine phosphorylation activity (LANCE TR-FRET)
# Assay type: biochemical
# Conditions: 1 nM SYK, 100 μM ATP
# Procedure: The in vitro and in vivo human syk activities of the inventive compounds can be determined by various procedures known in the art, such as a test for their ability to inhibit the activity of human plasma syk. […] Inhibition of Syk Tyrosine Phosphorylation Activity Potency of candidate molecules for inhibiting syk tyrosine phosphorylation activity is assessed by measuring the ability of a test compound to inhibit syk-mediated tyrosine phosphorylation of a syk-specific substrate. SYK tyrosine phosphorylation activity is measured using the LANCETM Technology developed by Perkin Elmer Life and Analytical Sciences (Boston, Mass.). LANCETM refers to homogeneous time resolved fluorometry applications using techniques such as time-resolved fluorescence resonance energy transfer assay (TR-FRET) (see generally for procedures in Perkin Elmer Application Note-How to Optimize a Tyrosine Kinase Assay Using Time Resolved Fluorescence-Based LANCE Detection, wwww.perkinelmer.com/lifesciences). The assay principle involves detection of a phosphorylated substrate using energy transfer from a phosphospecific europium-labeled antibody to streptavidin-allophycocyanin as an acceptor. To test the ability of candidate molecules to inhibit SYK tyrosine phosphorylation activity, molecules are reconstituted in 30% DMSO and serially diluted 1:3 with the final dilution containing DMSO in the absence of the candidate molecule. The final DMSO concentration in the assay is 3%. Kinase assays are performed as a two part reaction. The first reaction is a kinase reaction and which comprises of a candidate molecule, full length active recombinant SYK enzyme (Millipore, Calif.) and biotin-labeled SYK-specific substrate biotin-[…]-OH. The second reaction involves termination of the kinase reaction and the simultaneous addition of the detection reagents-europium-labeled anti-phosphotyrosine reagent (Eu-W1024-PY100, Perkin Elmer, Boston, Mass.) and Streptavidin-Allophycocyanin detection reagent (SA-APC, Prozyme, Calif.). The kinase reaction is performed in a black U-bottom 96-well microtitre plate. […] The reaction is allowed to proceed for 1 hour at room temperature. […] The detection reagents are added to the reaction mixture at the following dilutions-1:500 for Eu-W1024-PY100 and 1:250 for SA-APC. The kinase reaction is terminated by the addition of 50 μL quench buffer containing the detection reagents. The detection is allowed to proceed for 1 hr at room temperature. Detection of the phosphorlated substrate in the absence and presence of inhibitors is measured in the TR-FRET instrument, Analyst HT ([…], Sunnyvale, Calif.) and the condition for measurements are set up using CriterionHost Release 2.0 ([…], Sunnyvale, Calif.). […] IC50s were derived by non-linear regression analysis.
# [1] = Table 3, read-out: Syk IC50 code
Compound,IC50 [1],"IC50 (Table 4, read-out: syk IC50)"
"6-(5-fluoro-4-(3-oxopiperazin-1-yl)pyrimidin-2-ylamino)-3,4-dihydroquinolin-2(1H)-one [Example 123]",> 1000 nM,–
"CNc1nc(Nc2ccc3cn[nH]c3c2)nc2[nH]cc(-c3ccncc3)c12 [Example 1, N2-(1H-indazol-6-yl)-N4-methyl-5-(pyridin-4-yl)-7H-pyrrolo[2,3-d]pyrimidine-2,4-diamine]",10 to 100 nM,–
"CNc1nc(Nc2ccc(N3CCN(C(C)=O)CC3)cc2)nc2[nH]cc(-c3ccncc3)c12 [Example 2, 1-(4-(4-(4-(methylamino)-5-(pyridin-4-yl)-7H-pyrrolo[2,3-d]pyrimidin-2-ylamino)phenyl)piperazin-1-yl)ethanone]",100 to 1000 nM,–
"CNc1nc(Nc2ccc3cn[nH]c3c2)nc2[nH]cc(-c3cccnc3)c12 [Example 3, N2-(1H-indazol-6-yl)-N4-methyl-5-(pyridin-3-yl)-7H-pyrrolo[2,3-d]pyrimidine-2,4-diamine]",10 to 100 nM,–
"CC(=O)N1CCN(c2ccc(Nc3nc(NC4CC4)c4c(-c5ccncc5)c[nH]c4n3)cc2)CC1 [Example 4, 1-(4-(4-(4-(cyclopropylamino)-5-(pyridin-4-yl)-7H-pyrrolo[2,3-d]pyrimidin-2-ylamino)phenyl)piperazin-1-yl)ethanone]",10 to 100 nM,–
"NC(=O)c1cnc(-[n+]2ccc(-c3ccc(N)cc3)cc2)nc1NC1CC1 [Example 5, 4-(4-aminophenyl)-1-(5-carbamoyl-4-(cyclopropylamino)pyrimidin-2-yl)pyridinium]",> 1000 nM,–
"NC(=O)c1cnc(-[n+]2ccn(-c3ccc(N)cc3)c2)nc1NC1CC1 [Example 6, 1-(4-aminophenyl)-3-(5-carbamoyl-4-(cyclopropylamino)pyrimidin-2-yl)-1H-imidazol-3-ium]",> 1000 nM,–
"NC(=O)c1cnc(-n2ncc3ccc(N)c(Cl)c32)nc1NC1CC1 [Example 7, 2-(6-amino-7-chloro-1H-indazol-1-yl)-4-(cyclopropylamino)pyrimidine-5-carboxamide]",100 to 1000 nM,–
"CC(=O)N1CCN(c2ccc(Nc3ncc(C(N)=O)c(N4CCC(CN)CC4)n3)cc2)CC1 [Example 25, 2-(4-(4-acetylpiperazin-1-yl)phenylamino)-4-(4-(aminomethyl)piperidin-1-yl)pyrimidine-5-carboxamide]",–,> 1000 nM
"CC(=O)N1CCN(c2ccc(Nc3ncc(F)c(N4CCCC(C(N)=O)C4)n3)cc2)CC1 (stereo not drawn) [Example 27, 1-(2-(4-(4-acetylpiperazin-1-yl)phenylamino)-5-fluoropyrimidin-4-yl)piperidine-3-carboxamide]",–,> 1000 nM
"CC(=O)N(C)c1ccc(Nc2ncc(F)c(N3CCC(CNC(=O)OC(C)(C)C)CC3)n2)cc1 [Example 28, tert-butyl (1-(5-fluoro-2-(4-(N-methylacetamido)phenylamino)pyrimidin-4-yl)piperidin-4-yl)methylcarbamate]",> 1000 nM,> 1000 nM
"CC(C)(C)OC(=O)NCC1CCN(c2nc(Nc3ccc(C(N)=O)cc3)ncc2F)CC1 [Example 30, tert-butyl (1-(2-(4-carbamoylphenylamino)-5-fluoropyrimidin-4-yl)piperidin-4-yl)methylcarbamate]",–,> 1000 nM
"CC(=O)N1CCN(c2ccc(Nc3ncc(F)c(N4CCCCC4CN)n3)cc2)CC1 (stereo not drawn) [Example 34, 1-(4-(4-(4-(2-(aminomethyl)piperidin-1-yl)-5-fluoropyrimidin-2-ylamino)phenyl)piperazin-1-yl)ethanone]",–,> 1000 nM
"CC(C)(C)OC(=O)NCC1CCCCN1c1nc(Nc2ccc3cn[nH]c3c2)ncc1F (stereo not drawn) [Example 35, tert-butyl (1-(2-(1H-indazol-6-ylamino)-5-fluoropyrimidin-4-yl)piperidin-2-yl)methylcarbamate]",–,> 1000 nM
"NCC1CCCCN1c1nc(Nc2ccc3cn[nH]c3c2)ncc1F (stereo not drawn) [Example 36, N-(4-(2-(aminomethyl)piperidin-1-yl)-5-fluoropyrimidin-2-yl)-1H-indazol-6-amine]",–,> 1000 nM
"NC(=O)NCC1CCN(c2nc(Nc3ccc4c(c3)CCC(=O)N4)ncc2F)CC1 [Example 37, 1-((1-(5-fluoro-2-(2-oxo-1,2,3,4-tetrahydroquinolin-6-ylamino)pyrimidin-4-yl)piperidin-4-yl)methyl)urea]",100 to 1000 nM,–

# Second part, the compound after the results:
IC50 [1],"IC50 (Table 4, read-out: syk IC50)",Compound
–,> 1000 nM,CC(=O)N1CCN(c2ccc(Nc3ncc(C(N)=O)c(N4CCCCC4CCO)n3)cc2)CC1 (stereo not drawn) [2-(4-(4-acetylpiperazin-1-yl)phenylamino)-4-(2-(2-hydroxyethyl)piperidin-1-yl)pyrimidine-5-carboxamide]
–,100 to 1000 nM,CC(=O)N1CCN(c2ccc(Nc3ncc(C(N)=O)c(N4CCCC(CO)C4)n3)cc2)CC1 (stereo not drawn) [2-(4-(4-acetylpiperazin-1-yl)phenylamino)-4-(3-(hydroxymethyl)piperidin-1-yl)pyrimidine-5-carboxamide]
–,100 to 1000 nM,"CC(=O)N1CCN(c2ccc(Nc3ncc(C(N)=O)c(N4CCCN(CCO)CC4)n3)cc2)CC1 [2-(4-(4-acetylpiperazin-1-yl)phenylamino)-4-(4-(2-hydroxyethyl)-1,4-diazepan-1-yl)pyrimidine-5-carboxamide]"
–,> 1000 nM,"NC[C@@H]1CCCN1c1nc(Nc2ccc3cn[nH]c3c2)nc2[nH]ccc12 [(S)-4-(2-(aminomethyl)pyrrolidin-1-yl)-N-(1H-indazol-6-yl)-7H-pyrrolo[2,3-d]pyrimidin-2-amine]"
–,100 to 1000 nM,"N[C@H]1CCCN(c2nc(Nc3ccc4cn[nH]c4c3)nc3[nH]ccc23)C1 [(S)-4-(3-aminopiperidin-1-yl)-N-(1H-indazol-6-yl)-7H-pyrrolo[2,3-d]pyrimidin-2-amine]"
–,> 1000 nM,"O[C@H]1CCN(c2nc(Nc3ccc(N4CCNCC4)cc3)nc3[nH]ccc23)C1 [Example 12, (S)-1-(2-(4-(piperazin-1-yl)phenylamino)-7H-pyrrolo[2,3-d]pyrimidin-4-yl)pyrrolidin-3-ol]"
–,> 1000 nM,"CC(=O)N1CCN(c2ccc(Nc3nc(N4CC[C@H](O)C4)c4cc[nH]c4n3)cc2)CC1 [Example 13, (S)-1-(4-(4-(4-(3-hydroxypyrrolidin-1-yl)-7H-pyrrolo[2,3-d]pyrimidin-2-ylamino)phenyl)piperazin-1-yl)ethanone]"
–,100 to 1000 nM,"COc1cc(Nc2ncc(F)c(N3CCC(CN)CC3)n2)cc(OC)c1OC [Example 17, 4-(4-(aminomethyl)piperidin-1-yl)-5-fluoro-N-(3,4,5-trimethoxyphenyl)pyrimidin-2-amine]"
–,> 1000 nM,"c1cc2c(N3CCCCC3)nc(Nc3ccc(N4CCNCC4)cc3)nc2[nH]1 [Example 19, N-(4-(piperazin-1-yl)phenyl)-4-(piperidin-1-yl)-7H-pyrrolo[2,3-d]pyrimidin-2-amine]"
–,> 1000 nM,"CC(=O)N1CCN(c2ccc(Nc3nc(N4CCCCC4)c4cc[nH]c4n3)cc2)CC1 [Example 20, 1-(4-(4-(4-(piperidin-1-yl)-7H-pyrrolo[2,3-d]pyrimidin-2-ylamino)phenyl)piperazin-1-yl)ethanone]"
–,100 to 1000 nM,"c1cc2c(N3CCCC3)nc(Nc3ccc(N4CCNCC4)cc3)nc2[nH]1 [Example 21, N-(4-(piperazin-1-yl)phenyl)-4-(pyrrolidin-1-yl)-7H-pyrrolo[2,3-d]pyrimidin-2-amine]"
–,100 to 1000 nM,"CC(=O)N1CCN(c2ccc(Nc3nc(N4CCCC4)c4cc[nH]c4n3)cc2)CC1 [Example 22, 1-(4-(4-(4-(pyrrolidin-1-yl)-7H-pyrrolo[2,3-d]pyrimidin-2-ylamino)phenyl)piperazin-1-yl)ethanone]"
–,> 1000 nM,"NC(=O)C1CCN(c2nc(Nc3ccc(N4CCNCC4)cc3)nc3[nH]ccc23)CC1 [Example 23, 1-(2-(4-(piperazin-1-yl)phenylamino)-7H-pyrrolo[2,3-d]pyrimidin-4-yl)piperidine-4-carboxamide]"
–,100 to 1000 nM,"CC(=O)N1CCN(c2ccc(Nc3nc(N4CCC(C(N)=O)CC4)c4cc[nH]c4n3)cc2)CC1 [Example 24, 1-(2-(4-(4-acetylpiperazin-1-yl)phenylamino)-7H-pyrrolo[2,3-d]pyrimidin-4-yl)piperidine-4-carboxamide]"
–,100 to 1000 nM,"NC(=O)C1CCCN(c2nc(Nc3ccc4cn[nH]c4c3)ncc2F)C1 (stereo not drawn) [Example 26, 1-(2-(1H-indazol-6-ylamino)-5-fluoropyrimidin-4-yl)piperidine-3-carboxamide]"
–,10 to 100 nM,"NCC1CCN(c2nc(Nc3ccc(S(N)(=O)=O)cc3)ncc2F)CC1 [Example 32, 4-(4-(4-(aminomethyl)piperidin-1-yl)-5-fluoropyrimidin-2-ylamino)benzenesulfonamide]"
